Measurements published in ChEMBL document CHEMBL4002646, “Antimalarial Properties of Simplified Kalihinol Analogues” (ACS Med Chem Lett, 2017).

Columns and labels:
Plasmodium falciparum [1] = test: Antimalarial activity against Plasmodium falciparum 3D7 infected in human O+ erythrocytes after 72 hrs by SYBR green fluorescence-based method; format: functional, cell-based
Plasmodium falciparum [2] = test: Antimalarial activity against chloroquine-resistant Plasmodium falciparum Dd2 infected in human O+ erythrocytes after 72 hrs by SYBR green fluorescence-based method; format: functional, cell-based
Plasmodium falciparum [3] = test: Antimalarial activity against chloroquine-resistant Plasmodium falciparum FCR-3 ATCC 30932 infected in human RBC after 72 hrs by Geimsa staining based microscopic method; format: functional; conditions: FCR-3/Gambia ATCC 30932, 72 h
Plasmodium falciparum [4] = test: Antimalarial activity against chloroquine-resistant Plasmodium falciparum W2 infected in human RBC after 72 hrs; format: functional; conditions: W2, 72 h
[5] = Plasmodium falciparum, 3D7, 72 h
[6] = Plasmodium falciparum, Dd2, 72 h

Row | SMILES | IC50 (Plasmodium falciparum [1]; [5]) [nM] | IC50 (Plasmodium falciparum [2]; [6]) [nM] | further results
1 | CC(C)[C@H]1CC[C@@](C)(C#N)[C@H]2CC[C@@](C)(C#N)[C@H](O)[C@H]12 | 1150 | 958 | –
2 | CC1=C[C@@]2(O)[C@@H](CC1)[C@@](C)(C#N)CC[C@@H]2[C@@]1(C)CC[C@@H](C(C)(C)C#N)O1 | – | – | IC50 (Plasmodium falciparum [3]): 80 nM
3 | CC1=C[C@@H]2[C@@H](C(C)C)CC[C@](C)(C#N)[C@H]2CC1 (racemic) | 705 | 247 | –
4 | CC(C)[C@H]1CC[C@](C)(C#N)[C@H]2CC[C@@](C)(C#N)[C@H](O)[C@H]12 (racemic) | – | – | IC50 (Plasmodium falciparum [1]): 27 nM; IC50 (Plasmodium falciparum [2]): 46 nM
5 | CC(C)[C@H]1CC[C@](C)(C#N)[C@H]2CC[C@@](C)(C#N)[C@H](O)[C@H]12 | 15 | – | IC50 (Plasmodium falciparum [2]): 17 nM
6 | CC1=C[C@@H]2[C@@H](C(C)C)CC[C@@](C)(C#N)[C@@H]2CC1 (racemic) | 180 | 45 | –
7 | CC(C)(Cl)[C@@H]1CC[C@](C)([C@H]2CC[C@](C)(C#N)[C@H]3CC[C@@](C)(O)[C@H](C#N)[C@@H]32)O1 | 8.4 | 4.6 | –
8 | CC(C)[C@H]1CC[C@](C)(C#N)[C@H]2CC[C@@](C)(O)[C@H](C#N)[C@H]12 | 12 | 16 | –
9 | C[C@]1(C#N)CC[C@H](CCO)[C@H]2[C@@H](C#N)[C@](C)(O)CC[C@@H]21 (racemic) | 302 | 205 | –
10 | C[C@@H]1C[C@@H]2C[C@H](C)[C@H]3CC[C@](C)(C#N)[C@H]4CC[C@@H]([C@@H]2[C@H]34)[C@]1(C)C#N | – | 1.6 | IC50 (Plasmodium falciparum [4]): 13 nM
11 | CC1(C)O[C@@](C)([C@H]2CC[C@](C)(C#N)[C@H]3CC[C@@](C)(O)[C@H](C#N)[C@@H]32)CC[C@@H]1Cl | – | – | IC50 (Plasmodium falciparum [3]): 1.2 nM
12 | CC(C)[C@H]1CC[C@@](C)(C#N)[C@H]2CC[C@@](C)(O)[C@H](C#N)[C@H]12 | 2.9 | 31 | –
13 | CC(C)(O)C[C@@H]1[C@@]2(C)CCCC(C)(C)[C@@H]2CC[C@]1(C)C#N | 244 | 416 | –
14 | CC(C)(C#N)C[C@@H]1[C@@]2(C)CCCC(C)(C)[C@@H]2CC[C@]1(C)C#N | 1.9 | 1.6 | –
15 | CC1=C[C@H]2[C@H](CC1)[C@@](C)(C#N)CC[C@@H]2[C@@]1(C)CC[C@](C#N)(C(C)C)O1 | 175 | 123 | –
